≈ marks a conversion by molar mass, not a printed value.
What was measured:
Test in all cases: in vitro antibacterial potency test, doubling dilution agar plate method
Format in all cases: cell-based
[1] = tested on: Escherichia coli NIHJ-JC2; settings: NIHJJC2, 20 hours at 37° C., inoculum 0.005 ml of ca. 10^8 /ml, read-out: minimal inhibitory concentration (MIC)
Method: (§1) Using compound (1a-i), an in vitro antibacterial potency test was performed by the doubling dilution agar plate method. Each test strain was cultured in a sensitivity assay bouillon for 20 hours and 0.005 ml of the culture (viable cell count: ca. 10^8 /ml) was inoculated on a sensitivity assay agar medium containing a varying concentration of the antibacterial compound.
(§2) After 20 hours of incubation at 37° C., the minimal inhibitory concentration (MIC) was determined and expressed in units of μg/ml.

Proteus vulgaris = settings: 20 hours at 37° C., inoculum 0.005 ml of ca. 10^8 /ml, read-out: minimal inhibitory concentration (MIC)
Method: as §1, §2

Pseudomonas aeruginosa = settings: 20 hours at 37° C., inoculum 0.005 ml of ca. 10^8 /ml, read-out: minimal inhibitory concentration (MIC)
Method: as §1, §2

Serratia marcescens = settings: 20 hours at 37° C., inoculum 0.005 ml of ca. 10^8 /ml, read-out: minimal inhibitory concentration (MIC)
Method: as §1, §2

[2] = tested on: Staphylococcus aureus 209P; settings: 20 hours at 37° C., inoculum 0.005 ml of ca. 10^8 /ml, read-out: minimal inhibitory concentration (MIC)
Method: as §1, §2

[3] = tested on: Staphylococcus aureus, methicillin-resistant; settings: 20 hours at 37° C., inoculum 0.005 ml of ca. 10^8 /ml, read-out: minimal inhibitory concentration (MIC)
Method: as §1, §2

- MIC [1]: 12.5 µg/mL (≈ 28.5 µM)
- MIC (Proteus vulgaris): 0.39 µg/mL (≈ 0.889 µM)
- MIC (Pseudomonas aeruginosa): 100 µg/mL (≈ 228 µM)
- MIC (Serratia marcescens): 12.5 µg/mL (≈ 28.5 µM)
- MIC [2]: 0.1 µg/mL (≈ 0.228 µM)
- MIC [3]: 100 µg/mL (≈ 228 µM)
Structure (SMILES): COC(=O)CCSCC1SC2C(NC(=O)Cc3ccccc3)C(=O)N2C1C(=O)O (stereo not drawn) [compound (1a-i)]

Source: patent US5599925A, “Penam derivatives” (Otsuka Kagaku Kabushiki Kaisha, priority 1991, dated 1997)
